Tests used:
[1] = tested on: Tyrosine-protein kinase ABL1 (Homo sapiens), P00519 [Q252H]; test: Inhibition of nonphosphorylated ABL1 Q252H mutant (unknown origin) assessed as residual activity at 1000 nM by KINOMEscan analysis relative to control
[2] = biological target: Calcium-dependent protein kinase 1 (Plasmodium falciparum) (UniProt P62344); test: Inhibition of Plasmodium falciparum CDPK1 assessed as residual activity at 1000 nM by KINOMEscan analysis relative to control
[3] = biological target: T1, NUAK family SNF1-like kinase 1 (Homo sapiens) (UniProt O60285); test: Inhibition of ARK5 (unknown origin) assessed as residual activity at 1000 nM by KINOMEscan analysis relative to control
T1 sequence (whole entry): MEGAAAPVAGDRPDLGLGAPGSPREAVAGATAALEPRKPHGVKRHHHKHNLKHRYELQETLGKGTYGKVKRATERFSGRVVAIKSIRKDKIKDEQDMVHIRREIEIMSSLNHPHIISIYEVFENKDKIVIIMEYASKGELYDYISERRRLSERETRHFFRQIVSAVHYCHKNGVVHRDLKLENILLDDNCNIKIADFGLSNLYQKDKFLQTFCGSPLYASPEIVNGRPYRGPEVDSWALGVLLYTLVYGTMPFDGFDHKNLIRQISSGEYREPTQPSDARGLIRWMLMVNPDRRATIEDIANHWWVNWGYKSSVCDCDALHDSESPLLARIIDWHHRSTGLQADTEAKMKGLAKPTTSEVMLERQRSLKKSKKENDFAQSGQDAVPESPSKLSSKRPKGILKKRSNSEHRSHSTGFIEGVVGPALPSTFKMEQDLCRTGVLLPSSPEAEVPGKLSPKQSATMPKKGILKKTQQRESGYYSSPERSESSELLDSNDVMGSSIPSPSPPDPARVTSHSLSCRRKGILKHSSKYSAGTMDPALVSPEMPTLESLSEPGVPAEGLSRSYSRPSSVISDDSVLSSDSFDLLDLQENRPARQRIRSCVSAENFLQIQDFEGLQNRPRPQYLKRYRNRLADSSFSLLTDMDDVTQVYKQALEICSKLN

[4] = biological target: T2, Phosphatidylinositol 5-phosphate 4-kinase type-2 beta (Homo sapiens) (UniProt P78356); test: Inhibition of PIP5K2B (unknown origin) assessed as residual activity at 1000 nM by KINOMEscan analysis relative to control
T2 sequence (whole entry): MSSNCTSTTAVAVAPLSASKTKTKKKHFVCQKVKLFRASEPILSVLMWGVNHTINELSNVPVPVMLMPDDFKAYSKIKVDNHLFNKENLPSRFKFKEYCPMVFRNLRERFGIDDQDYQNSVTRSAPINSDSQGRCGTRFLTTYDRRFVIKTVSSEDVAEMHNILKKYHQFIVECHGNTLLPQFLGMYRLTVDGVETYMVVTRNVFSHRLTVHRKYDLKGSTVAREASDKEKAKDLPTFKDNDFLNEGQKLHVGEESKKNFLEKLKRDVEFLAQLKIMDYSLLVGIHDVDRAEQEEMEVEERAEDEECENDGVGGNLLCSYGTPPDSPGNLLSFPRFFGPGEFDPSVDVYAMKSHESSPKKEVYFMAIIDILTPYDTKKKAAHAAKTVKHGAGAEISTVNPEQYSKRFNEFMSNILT

[5] = biological target: Calcium/calmodulin-dependent protein kinase kinase 2 (Homo sapiens) (UniProt Q96RR4); test: Inhibition of CAMKK2 (unknown origin) assessed as residual activity at 1000 nM by KINOMEscan analysis relative to control
Sequence of Calcium/calmodulin-dependent protein kinase kinase 2 (Homo sapiens) (Q96RR4 2-588 limits assumed): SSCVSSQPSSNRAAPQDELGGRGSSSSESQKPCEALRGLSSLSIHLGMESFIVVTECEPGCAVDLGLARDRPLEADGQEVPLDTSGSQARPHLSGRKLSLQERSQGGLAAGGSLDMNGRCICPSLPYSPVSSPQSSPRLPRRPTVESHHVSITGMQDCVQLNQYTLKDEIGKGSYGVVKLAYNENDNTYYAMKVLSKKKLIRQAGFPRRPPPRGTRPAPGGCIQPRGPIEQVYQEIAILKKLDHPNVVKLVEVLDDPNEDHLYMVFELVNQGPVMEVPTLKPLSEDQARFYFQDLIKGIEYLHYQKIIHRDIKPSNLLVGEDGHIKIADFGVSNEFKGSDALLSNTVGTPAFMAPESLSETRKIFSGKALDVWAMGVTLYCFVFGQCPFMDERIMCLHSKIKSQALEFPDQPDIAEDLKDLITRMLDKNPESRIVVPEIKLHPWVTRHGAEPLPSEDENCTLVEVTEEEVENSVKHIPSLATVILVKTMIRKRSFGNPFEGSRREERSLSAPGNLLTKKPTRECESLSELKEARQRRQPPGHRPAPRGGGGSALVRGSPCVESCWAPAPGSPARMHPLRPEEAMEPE

[6] = biological target: MAP kinase-interacting serine/threonine-protein kinase 2 (Homo sapiens) (UniProt Q9HBH9); test: Inhibition of MKNK2 (unknown origin) assessed as residual activity at 1000 nM by KINOMEscan analysis relative to control
Sequence of MAP kinase-interacting serine/threonine-protein kinase 2 (Homo sapiens) (Q9HBH9 whole entry, looked up): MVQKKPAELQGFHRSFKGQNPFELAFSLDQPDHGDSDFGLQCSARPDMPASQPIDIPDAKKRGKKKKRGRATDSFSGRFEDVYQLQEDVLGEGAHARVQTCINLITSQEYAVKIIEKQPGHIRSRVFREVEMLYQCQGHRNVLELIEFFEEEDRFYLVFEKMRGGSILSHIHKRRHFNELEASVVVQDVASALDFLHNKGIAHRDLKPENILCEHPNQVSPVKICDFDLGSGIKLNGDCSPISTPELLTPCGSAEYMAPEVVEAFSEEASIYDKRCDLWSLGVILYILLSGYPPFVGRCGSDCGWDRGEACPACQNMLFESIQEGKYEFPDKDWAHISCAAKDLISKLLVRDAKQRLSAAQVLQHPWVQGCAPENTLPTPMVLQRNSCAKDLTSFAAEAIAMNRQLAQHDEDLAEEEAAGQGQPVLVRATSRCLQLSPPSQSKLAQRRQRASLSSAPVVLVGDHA

[7] = biological target: Serine/threonine-protein kinase SIK3 (Homo sapiens) (UniProt Q9Y2K2); test: Inhibition of QSK (unknown origin) assessed as residual activity at 1000 nM by KINOMEscan analysis relative to control
Sequence of Serine/threonine-protein kinase SIK3 (Homo sapiens) (Q9Y2K2 whole entry, looked up): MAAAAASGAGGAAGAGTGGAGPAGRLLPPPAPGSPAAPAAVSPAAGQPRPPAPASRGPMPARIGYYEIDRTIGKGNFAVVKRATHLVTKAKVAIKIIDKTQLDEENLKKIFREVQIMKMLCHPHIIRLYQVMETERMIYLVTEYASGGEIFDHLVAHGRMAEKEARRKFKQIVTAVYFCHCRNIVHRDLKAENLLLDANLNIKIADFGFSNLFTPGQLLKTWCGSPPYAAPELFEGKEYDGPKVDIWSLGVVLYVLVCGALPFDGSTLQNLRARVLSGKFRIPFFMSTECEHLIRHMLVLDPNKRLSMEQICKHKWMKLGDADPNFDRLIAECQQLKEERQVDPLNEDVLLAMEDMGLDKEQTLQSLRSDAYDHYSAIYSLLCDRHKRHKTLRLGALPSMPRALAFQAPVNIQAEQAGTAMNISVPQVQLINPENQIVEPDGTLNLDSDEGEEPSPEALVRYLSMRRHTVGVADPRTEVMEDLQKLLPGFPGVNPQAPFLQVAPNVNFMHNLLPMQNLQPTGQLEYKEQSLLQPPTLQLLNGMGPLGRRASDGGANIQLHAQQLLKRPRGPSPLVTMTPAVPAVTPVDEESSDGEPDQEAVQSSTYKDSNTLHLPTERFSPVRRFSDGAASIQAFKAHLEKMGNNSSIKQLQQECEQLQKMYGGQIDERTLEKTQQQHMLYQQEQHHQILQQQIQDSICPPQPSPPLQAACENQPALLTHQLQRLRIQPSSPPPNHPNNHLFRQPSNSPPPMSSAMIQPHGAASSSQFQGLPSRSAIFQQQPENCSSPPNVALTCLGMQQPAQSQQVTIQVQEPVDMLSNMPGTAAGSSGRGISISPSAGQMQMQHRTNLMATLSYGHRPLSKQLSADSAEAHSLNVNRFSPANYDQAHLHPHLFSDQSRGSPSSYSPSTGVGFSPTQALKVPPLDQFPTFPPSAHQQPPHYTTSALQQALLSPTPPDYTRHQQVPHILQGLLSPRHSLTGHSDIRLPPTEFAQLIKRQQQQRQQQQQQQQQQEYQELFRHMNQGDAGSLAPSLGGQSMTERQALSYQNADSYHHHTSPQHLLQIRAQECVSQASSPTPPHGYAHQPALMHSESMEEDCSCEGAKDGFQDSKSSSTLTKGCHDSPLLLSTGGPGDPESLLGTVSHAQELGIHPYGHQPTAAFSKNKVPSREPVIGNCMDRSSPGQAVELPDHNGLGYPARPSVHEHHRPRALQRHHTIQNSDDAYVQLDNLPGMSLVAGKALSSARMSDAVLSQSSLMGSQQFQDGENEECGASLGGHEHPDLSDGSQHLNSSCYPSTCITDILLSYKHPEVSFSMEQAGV

[8] = tested on: Tyrosine-protein kinase ABL1 (Homo sapiens), P00519 [F317I]; test: Inhibition of phosphorylated ABL1 F317I mutant (unknown origin) assessed as residual activity at 1000 nM by KINOMEscan analysis relative to control
[9] = biological target: RAC-gamma serine/threonine-protein kinase (Homo sapiens) (UniProt Q9Y243); test: Inhibition of AKT3 (unknown origin) assessed as residual activity at 1000 nM by KINOMEscan analysis relative to control
Sequence of RAC-gamma serine/threonine-protein kinase (Homo sapiens) (Q9Y243 whole entry): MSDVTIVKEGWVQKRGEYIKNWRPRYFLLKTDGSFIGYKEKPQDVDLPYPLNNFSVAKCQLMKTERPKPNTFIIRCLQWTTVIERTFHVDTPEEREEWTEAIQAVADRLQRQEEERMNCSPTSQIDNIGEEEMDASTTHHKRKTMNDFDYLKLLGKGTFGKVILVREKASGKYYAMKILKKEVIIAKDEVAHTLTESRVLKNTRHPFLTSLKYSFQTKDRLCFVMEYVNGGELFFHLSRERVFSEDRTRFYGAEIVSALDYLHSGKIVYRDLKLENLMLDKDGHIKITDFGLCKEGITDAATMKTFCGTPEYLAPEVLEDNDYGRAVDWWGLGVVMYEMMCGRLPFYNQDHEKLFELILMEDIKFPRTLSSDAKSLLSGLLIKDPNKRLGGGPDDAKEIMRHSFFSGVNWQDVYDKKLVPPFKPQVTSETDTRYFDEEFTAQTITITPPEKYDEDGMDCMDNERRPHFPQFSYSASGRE

[10] = tested on: Tyrosine-protein kinase ABL1 (Homo sapiens), P00519 [E255K]; test: Inhibition of phosphorylated ABL1 E255K mutant (unknown origin) assessed as residual activity at 1000 nM by KINOMEscan analysis relative to control
[11] = biological target: Peripheral plasma membrane protein CASK (Homo sapiens) (UniProt O14936); test: Inhibition of CASK (unknown origin) assessed as residual activity at 1000 nM by KINOMEscan analysis relative to control
Sequence of Peripheral plasma membrane protein CASK (Homo sapiens) (O14936 whole entry, looked up): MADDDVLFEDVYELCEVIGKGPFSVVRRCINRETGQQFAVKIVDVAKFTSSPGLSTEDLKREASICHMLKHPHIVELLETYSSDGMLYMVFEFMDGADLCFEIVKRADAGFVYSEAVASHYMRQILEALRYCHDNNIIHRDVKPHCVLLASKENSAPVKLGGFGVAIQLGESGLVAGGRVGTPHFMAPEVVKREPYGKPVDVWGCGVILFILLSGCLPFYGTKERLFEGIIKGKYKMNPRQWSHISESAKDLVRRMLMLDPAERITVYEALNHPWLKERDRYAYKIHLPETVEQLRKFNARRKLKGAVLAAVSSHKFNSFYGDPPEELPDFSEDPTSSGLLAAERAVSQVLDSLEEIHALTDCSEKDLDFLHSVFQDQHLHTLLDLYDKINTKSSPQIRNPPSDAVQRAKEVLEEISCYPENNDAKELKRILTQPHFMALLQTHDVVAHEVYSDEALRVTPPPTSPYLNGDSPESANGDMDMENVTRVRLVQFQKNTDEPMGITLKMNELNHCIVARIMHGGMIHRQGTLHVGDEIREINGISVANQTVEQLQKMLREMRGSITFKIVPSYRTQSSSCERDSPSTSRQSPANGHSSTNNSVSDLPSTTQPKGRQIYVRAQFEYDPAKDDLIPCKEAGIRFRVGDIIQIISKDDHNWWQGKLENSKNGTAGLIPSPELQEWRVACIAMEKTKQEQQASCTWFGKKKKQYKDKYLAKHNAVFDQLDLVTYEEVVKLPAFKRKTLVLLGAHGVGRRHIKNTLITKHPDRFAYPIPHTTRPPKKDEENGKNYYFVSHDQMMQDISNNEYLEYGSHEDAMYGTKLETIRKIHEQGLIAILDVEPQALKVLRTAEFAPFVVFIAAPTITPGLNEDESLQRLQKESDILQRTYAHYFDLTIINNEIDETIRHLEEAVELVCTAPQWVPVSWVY

[12] = biological target: Cyclin-dependent kinase 4/cyclin D1 (Homo sapiens) (UniProt P11802+P24385); test: Inhibition of CDK4-cyclin D1 (unknown origin) assessed as residual activity at 1000 nM by KINOMEscan analysis relative to control; assay type: protein-complex assay
[13] = biological target: MAP kinase-interacting serine/threonine-protein kinase 1 (Homo sapiens) (UniProt Q9BUB5); test: Inhibition of MKNK1 (unknown origin) assessed as residual activity at 1000 nM by KINOMEscan analysis relative to control
Sequence of MAP kinase-interacting serine/threonine-protein kinase 1 (Homo sapiens) (Q9BUB5 whole entry, looked up): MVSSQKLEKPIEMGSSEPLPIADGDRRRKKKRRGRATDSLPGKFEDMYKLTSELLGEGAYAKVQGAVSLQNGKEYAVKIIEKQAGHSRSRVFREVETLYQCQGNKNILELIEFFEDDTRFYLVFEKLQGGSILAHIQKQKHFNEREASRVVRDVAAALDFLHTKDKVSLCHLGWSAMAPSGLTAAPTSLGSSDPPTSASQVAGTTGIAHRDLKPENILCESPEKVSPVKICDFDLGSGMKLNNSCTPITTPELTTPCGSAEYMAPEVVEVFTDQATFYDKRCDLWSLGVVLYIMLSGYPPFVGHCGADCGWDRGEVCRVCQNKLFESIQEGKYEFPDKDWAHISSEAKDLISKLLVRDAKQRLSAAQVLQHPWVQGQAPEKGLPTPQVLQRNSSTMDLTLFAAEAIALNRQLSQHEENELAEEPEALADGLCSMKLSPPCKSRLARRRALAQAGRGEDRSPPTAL

[14] = biological target: Serine/threonine-protein kinase mTOR (Homo sapiens) (UniProt P42345); test: Inhibition of MTOR (unknown origin) assessed as residual activity at 1000 nM by KINOMEscan analysis relative to control
[15] = biological target: T3, Tyrosine-protein kinase TXK (Homo sapiens) (UniProt P42681); test: Inhibition of TXK (unknown origin) assessed as residual activity at 1000 nM by KINOMEscan analysis relative to control
T3 sequence (whole entry): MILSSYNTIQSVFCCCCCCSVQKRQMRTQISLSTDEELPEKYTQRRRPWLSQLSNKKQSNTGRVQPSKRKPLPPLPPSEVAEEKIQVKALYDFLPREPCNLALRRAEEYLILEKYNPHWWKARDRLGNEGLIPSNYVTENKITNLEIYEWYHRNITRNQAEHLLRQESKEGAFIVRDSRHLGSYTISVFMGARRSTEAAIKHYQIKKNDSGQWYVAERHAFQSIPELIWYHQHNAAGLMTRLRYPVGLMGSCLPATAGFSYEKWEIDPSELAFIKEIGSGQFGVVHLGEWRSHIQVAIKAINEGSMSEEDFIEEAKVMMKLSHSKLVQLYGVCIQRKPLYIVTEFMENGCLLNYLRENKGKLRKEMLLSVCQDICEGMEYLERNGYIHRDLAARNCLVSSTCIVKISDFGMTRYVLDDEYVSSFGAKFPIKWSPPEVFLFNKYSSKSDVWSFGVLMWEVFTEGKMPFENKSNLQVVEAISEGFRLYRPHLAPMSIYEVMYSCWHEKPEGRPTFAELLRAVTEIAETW

Sequence of Calcium-dependent protein kinase 1 (Plasmodium falciparum) (P62344 2-524 limits assumed): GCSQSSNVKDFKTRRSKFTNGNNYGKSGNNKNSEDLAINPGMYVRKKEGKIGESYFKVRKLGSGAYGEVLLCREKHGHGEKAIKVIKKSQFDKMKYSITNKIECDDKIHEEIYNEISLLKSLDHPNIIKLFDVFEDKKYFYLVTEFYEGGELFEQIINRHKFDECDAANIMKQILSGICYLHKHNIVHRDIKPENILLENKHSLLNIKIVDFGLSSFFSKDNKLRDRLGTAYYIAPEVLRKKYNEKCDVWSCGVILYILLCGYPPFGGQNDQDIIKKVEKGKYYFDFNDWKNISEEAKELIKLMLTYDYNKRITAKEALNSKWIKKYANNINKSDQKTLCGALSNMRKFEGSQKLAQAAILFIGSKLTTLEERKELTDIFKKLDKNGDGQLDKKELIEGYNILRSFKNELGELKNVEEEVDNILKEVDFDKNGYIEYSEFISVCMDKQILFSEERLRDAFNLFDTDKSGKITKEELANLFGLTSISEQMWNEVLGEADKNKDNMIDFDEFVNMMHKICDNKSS

COc1cc2nc(C)nc(N[C@H](C)c3cccc(-c4cn[nH]c4)c3)c2cc1OC
Activity [1]: 45% | Activity [2]: 81% | Activity [3]: 100% | Activity [4]: 89% | Activity [5]: 65% | Activity [6]: 89% | Activity [7]: 83% | Activity [8]: 75% | Activity [9]: 84% | Activity [10]: 65% | Activity [11]: 78% | Activity [12]: 100% | Activity [13]: 100% | Activity [14]: 62% | Activity [15]: 83%

COc1cc2ncnc(N[C@H](C)c3cccc4ccccc34)c2cc1OC
Activity [1]: 100% | Activity [2]: 62% | Activity [3]: 83% | Activity [4]: 100% | Activity [5]: 92% | Activity [6]: 100% | Activity [7]: 84% | Activity [8]: 71% | Activity [9]: 100% | Activity [10]: 89% | Activity [11]: 72% | Activity [12]: 98% | Activity [13]: 56% | Activity [14]: 95% | Activity [15]: 100%
